# Experimental data: ChEMBL document CHEMBL5370594, “Novel Compounds for Preventing SARS-CoV-2 Viral Replication and Treating COVID-19” (ACS Med Chem Lett, 2023)
# Target: Replicase polyprotein 1ab (Severe acute respiratory syndrome coronavirus 2, UniProt P0DTD1)
# Experiment: Inhibition of full-length recombinant SARS-CoV-2 3CL protease expressed in Escherichia coli BL21 (DE3) using FAM- KTSAVLQSGFRKMEK-TAMRA as substrate pre-incubated for 1 hr with compound followed by substrate addition measured after 30 mins by FRET analysis
row,SMILES,IC50 [nM]
1,CC(C)(C)[C@H](NC(=O)C(F)(F)F)C(=O)N1C[C@H]2[C@@H]([C@H]1C(=O)NN(C[C@@H]1CCNC1=O)C(=O)CCl)C2(C)C,6
2,CC[C@H](C)[C@H](NC(=O)C(F)(F)C(F)(F)F)C(=O)N1C[C@@H]2CCC[C@@H]2[C@H]1C(=O)NN(C[C@@H]1CCNC1=O)C(=O)[C@H](F)Cl,6
3,CCC(CC)[C@H](NC(=O)C(F)(F)F)C(=O)N1C[C@H]2[C@@H]([C@H]1C(=O)NN(C[C@@H]1CCNC1=O)C(=O)[C@H](F)Cl)C2(C)C,7
